Experimental data reported in patent US9532985B2, “Tetrahydroquinoline derivatives for treating post-traumatic stress disorders” (ACTELION PHARMACEUTICALS LTD., priority 2007, dated 2017).

Test system: fear-potentiated acoustic startle response in Fischer F344 rats
Test: Fear-potentiated startle response in rats
Type: in vivo, rat
Source text: The compounds of formula I can be administered to the animal in order to assess their effects on emotional reactivity.
Signs of decreased emotional reactivity to acoustic stimuli have been discovered in an animal model of fear potentiated acoustic startle. Anxiolytic-like activity—as assessed by decreased acoustic startle reactivity—was observed one hour after treatment with a compound of the formula I compared to vehicle (PEG400) control treatment and to active treatment with diazepam given orally. […] In human medicine, increased acoustic startle reactivity has been observed in patients suffering from PTSD anxiety compared to healthy subjects (Exaggerated acoustic startle reflex in Gulf War veterans with posttraumatic stress disorder, Am. J. Psychiatry (1996), 153(1), 64-68).
In the fear-potentiated startle procedure in rats, a neutral stimulus such as light is repetitively paired with an aversive stimulus such as mild foot shock. When an animal is presented with loud acoustic stimuli, enhanced startle responses are elicited when the startle stimulus is preceded by the light (a classically conditioned increase in fear). Benzodiazepine anxiolytics attenuate the response enhancement. Startle response was recorded by using auditory startle chambers. […]

With `CNC(=O)[C@@H](c1ccccc1)N1CCc2cc(OC)c(OC)cc2[C@@H]1CCc1ccc(C(F)(F)F)cc1.Cl` [Compound A, (R)-2-{(S)-6,7-dimethoxy-1-[2-(4-trifluoromethyl-phenyl)-ethyl]-3,4-dihydro-1H-isoquinolin-2-yl}-N-methyl-2-phenyl-acetamide hydrochloride] the startle response amplitude (oral 107 mg/kg, one hour after treatment, compared with vehicle (PEG400) group control 1) was “reduces in a significant manner the startle response amplitude”.
In the case of `CN1C(=O)CN=C(c2ccccc2)c2cc(Cl)ccc21` [diazepam], the startle response amplitude (oral 3 mg/kg, compared with vehicle group control 2) is reported as “reduces in a significant manner the startle response amplitude”.
